Measured values: PubChem BioAssay (NCI)
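In this assay, cells in 96-well plates receive the compound at five concentrations for 48 hours. Endpoints are linearly interpolated between the surrounding concentrations. Abbreviation: GI50, concentration required for 50% inhibition of growth. At the TGI there is no net growth.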

Tests used:
Assay in all cases: growth of human tumour cells (NCI), 48 h
UACC-257 melanoma = system: UACC-257 melanoma
RPMI-8226 leukemia = system: RPMI-8226 leukemia
T-47D breast = system: T-47D breast
HOP-62 NSCLC = system: HOP-62 NSCLC
EKVX NSCLC = system: EKVX NSCLC
CAKI-1 renal = system: CAKI-1 renal
ACHN renal = system: ACHN renal
SW-620 colon = system: SW-620 colon
MALME-3M melanoma = system: MALME-3M melanoma
SNB-75 CNS = system: SNB-75 CNS
OVCAR-4 ovarian = system: OVCAR-4 ovarian
BT-549 breast = system: BT-549 breast
OVCAR-5 ovarian = system: OVCAR-5 ovarian
786-0 renal = system: 786-0 renal
HS 578T breast = system: HS 578T breast
HCC-2998 colon = system: HCC-2998 colon
SK-OV-3 ovarian = system: SK-OV-3 ovarian
HOP-92 NSCLC = system: HOP-92 NSCLC
OVCAR-8 ovarian = system: OVCAR-8 ovarian
KM12 colon = system: KM12 colon
SK-MEL-28 melanoma = system: SK-MEL-28 melanoma
RXF 393 renal = system: RXF 393 renal
SF-268 CNS = system: SF-268 CNS
MDA-MB-468 breast = system: MDA-MB-468 breast
CCRF-CEM leukemia = system: CCRF-CEM leukemia
K-562 leukemia = system: K-562 leukemia
MDA-MB-435 = system: MDA-MB-435
SF-539 CNS = system: SF-539 CNS
DU-145 prostate = system: DU-145 prostate
IGROV1 ovarian = system: IGROV1 ovarian
LOX IMVI melanoma = system: LOX IMVI melanoma
SF-295 CNS = system: SF-295 CNS
NCI-H460 lung = system: NCI-H460 lung
COLO 205 colon = system: COLO 205 colon
SK-MEL-2 melanoma = system: SK-MEL-2 melanoma
NCI/ADR-RES ovarian = system: NCI/ADR-RES ovarian
NCI-H226 lung = system: NCI-H226 lung
SN12C renal = system: SN12C renal
SK-MEL-5 melanoma = system: SK-MEL-5 melanoma
M14 melanoma = system: M14 melanoma
MCF7 breast = system: MCF7 breast
SNB-19 CNS = system: SNB-19 CNS
HL-60(TB) leukemia = system: HL-60(TB) leukemia
U251 CNS = system: U251 CNS
PC-3 prostate = system: PC-3 prostate
OVCAR-3 ovarian = system: OVCAR-3 ovarian
A498 renal = system: A498 renal
MDA-MB-231 breast = system: MDA-MB-231 breast
HCT-15 colon = system: HCT-15 colon
TK-10 renal = system: TK-10 renal
UACC-62 melanoma = system: UACC-62 melanoma
UO-31 renal = system: UO-31 renal
MOLT-4 leukemia = system: MOLT-4 leukemia
SR leukemia = system: SR leukemia

With COc1ccc2[nH]c(O)c(N=NC(=O)COc3ccc(NC(=O)Nc4ccc(Cl)c(Cl)c4)cc3)c2c1 the GI50 (UACC-257 melanoma) was 3360 nM, the TGI (UACC-257 melanoma) was 15900 nM and the GI50 (RPMI-8226 leukemia) was 2710 nM. The TGI (RPMI-8226 leukemia) was over 100000 nM, the GI50 (T-47D breast) was 1460 nM and the TGI (T-47D breast) was 3260 nM. It also gave a GI50 (HOP-62 NSCLC) of 2880 nM, a TGI (HOP-62 NSCLC) of 14100 nM and a GI50 (EKVX NSCLC) of 3890 nM. For the same compound, the TGI (EKVX NSCLC) was 25900 nM, the GI50 (CAKI-1 renal) was 2390 nM and the TGI (CAKI-1 renal) was 11000 nM. It also gave a GI50 (ACHN renal) of 2180 nM, a TGI (ACHN renal) of 13200 nM and a GI50 (SW-620 colon) of 441 nM. For the same compound, the TGI (SW-620 colon) was 1370 nM, the GI50 (MALME-3M melanoma) was 452 nM and the TGI (MALME-3M melanoma) was 1680 nM. For the same compound, the GI50 (SNB-75 CNS) was 1610 nM, the TGI (SNB-75 CNS) was 3980 nM and the GI50 (OVCAR-4 ovarian) was 691 nM. For the same compound, the TGI (OVCAR-4 ovarian) was 2740 nM, the GI50 (BT-549 breast) was 2010 nM and the TGI (BT-549 breast) was 4470 nM. The GI50 (OVCAR-5 ovarian) was 1530 nM, the TGI (OVCAR-5 ovarian) was 6000 nM and the GI50 (786-0 renal) was 1070 nM. For the same compound, the TGI (786-0 renal) was 2750 nM, the GI50 (HS 578T breast) was 1870 nM and the TGI (HS 578T breast) was 5520 nM. For the same compound, the GI50 (HCC-2998 colon) was 2970 nM, the TGI (HCC-2998 colon) was 15600 nM and the GI50 (SK-OV-3 ovarian) was 5100 nM. It also gave a TGI (SK-OV-3 ovarian) of 17500 nM, a GI50 (HOP-92 NSCLC) of 615 nM and a TGI (HOP-92 NSCLC) of 2630 nM. The GI50 (OVCAR-8 ovarian) was 2330 nM, the TGI (OVCAR-8 ovarian) was 15700 nM and the GI50 (KM12 colon) was 1290 nM. For the same compound, the TGI (KM12 colon) was 7640 nM, the GI50 (SK-MEL-28 melanoma) was 1630 nM and the TGI (SK-MEL-28 melanoma) was 4050 nM. It also gave a GI50 (RXF 393 renal) of 1050 nM, a TGI (RXF 393 renal) of 2900 nM and a GI50 (SF-268 CNS) of 1640 nM. The TGI (SF-268 CNS) was 10200 nM, the GI50 (MDA-MB-468 breast) was 1170 nM and the TGI (MDA-MB-468 breast) was 3010 nM. It also gave a GI50 (CCRF-CEM leukemia) of 822 nM, a TGI (CCRF-CEM leukemia) of 19100 nM and a GI50 (K-562 leukemia) of 575 nM. It also gave a TGI (K-562 leukemia) of 19700 nM, a GI50 (MDA-MB-435) of 605 nM and a TGI (MDA-MB-435) of 2360 nM. It also gave a GI50 (SF-539 CNS) of 767 nM, a TGI (SF-539 CNS) of 2090 nM and a GI50 (DU-145 prostate) of 493 nM. It also gave a TGI (DU-145 prostate) of 1910 nM, a GI50 (IGROV1 ovarian) of 1910 nM and a TGI (IGROV1 ovarian) of 6350 nM. The GI50 (LOX IMVI melanoma) was 309 nM, the TGI (LOX IMVI melanoma) was 1030 nM and the GI50 (SF-295 CNS) was 1910 nM. The TGI (SF-295 CNS) was 5220 nM, the GI50 (NCI-H460 lung) was 437 nM and the TGI (NCI-H460 lung) was 1490 nM. It also gave a GI50 (COLO 205 colon) of 1120 nM, a TGI (COLO 205 colon) of 4210 nM and a GI50 (SK-MEL-2 melanoma) of 10400 nM. For the same compound, the TGI (SK-MEL-2 melanoma) was 23000 nM, the GI50 (NCI/ADR-RES ovarian) was 25400 nM and the TGI (NCI/ADR-RES ovarian) was over 100000 nM. For the same compound, the GI50 (NCI-H226 lung) was 1070 nM, the TGI (NCI-H226 lung) was 3450 nM and the GI50 (SN12C renal) was 1100 nM. For the same compound, the TGI (SN12C renal) was 3450 nM, the GI50 (SK-MEL-5 melanoma) was 1990 nM and the TGI (SK-MEL-5 melanoma) was 5360 nM. For the same compound, the GI50 (M14 melanoma) was 992 nM, the TGI (M14 melanoma) was 4570 nM and the GI50 (MCF7 breast) was 488 nM. It also gave a TGI (MCF7 breast) of 6050 nM, a GI50 (SNB-19 CNS) of 3330 nM and a TGI (SNB-19 CNS) of 14200 nM. For the same compound, the GI50 (HL-60(TB) leukemia) was 6710 nM, the TGI (HL-60(TB) leukemia) was 25100 nM and the GI50 (U251 CNS) was 3370 nM. It also gave a TGI (U251 CNS) of 14900 nM, a GI50 (PC-3 prostate) of 1420 nM and a TGI (PC-3 prostate) of 4720 nM. It also gave a GI50 (OVCAR-3 ovarian) of 696 nM, a TGI (OVCAR-3 ovarian) of 2280 nM and a GI50 (A498 renal) of 1840 nM. It also gave a TGI (A498 renal) of 5400 nM, a GI50 (MDA-MB-231 breast) of 1460 nM and a TGI (MDA-MB-231 breast) of 3550 nM. The GI50 (HCT-15 colon) was 31600 nM, the TGI (HCT-15 colon) was over 100000 nM and the GI50 (TK-10 renal) was 3790 nM. It also gave a TGI (TK-10 renal) of 14600 nM, a GI50 (UACC-62 melanoma) of 2860 nM and a TGI (UACC-62 melanoma) of 12700 nM. The GI50 (UO-31 renal) was 31300 nM, the TGI (UO-31 renal) was over 100000 nM and the GI50 (MOLT-4 leukemia) was 1610 nM. The TGI (MOLT-4 leukemia) was 17900 nM, the GI50 (SR leukemia) was 1040 nM and the TGI (SR leukemia) was 18400 nM.
